Common to all, as to assay type: biochemical
Assay [1] deals with T1, D-aminoacylase (Alcaligenes faecalis, UniProt Q9AGH8).
T1 sequence (Q9AGH8 1-484): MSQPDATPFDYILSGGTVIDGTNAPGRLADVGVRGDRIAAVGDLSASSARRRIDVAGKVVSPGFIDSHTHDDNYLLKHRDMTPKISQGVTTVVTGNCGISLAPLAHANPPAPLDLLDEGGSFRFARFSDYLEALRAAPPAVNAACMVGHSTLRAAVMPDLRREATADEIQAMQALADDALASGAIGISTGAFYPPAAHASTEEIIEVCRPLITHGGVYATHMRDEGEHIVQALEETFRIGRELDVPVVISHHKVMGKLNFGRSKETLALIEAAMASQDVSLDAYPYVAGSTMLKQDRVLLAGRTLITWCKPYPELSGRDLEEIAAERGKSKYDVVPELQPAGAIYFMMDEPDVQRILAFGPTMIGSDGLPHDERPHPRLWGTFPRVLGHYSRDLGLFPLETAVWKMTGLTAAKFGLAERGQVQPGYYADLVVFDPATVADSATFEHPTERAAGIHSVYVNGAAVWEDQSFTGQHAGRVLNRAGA
Briefly: Substrate specificity of D-aminoacylase (hydrolysis of N-acyl amino acids, ninhydrin method). The conditions noted are these: for Relative Activity D-form: D-form of the substrate, N-acetyl-D-methionine = 100; for Relative Activity L-form: L-form of the substrate, relative to N-acetyl-D-methionine = 100. The text has this:
The activity of D-aminoacylase obtained by the method of this invention may be measured in accordance with Rosen method by using suitable amount of enzyme to decompose N-acetyl-D-methionine, of which the produced D-methionine may be quantitatively measured by D-amino acid oxidase or by ninhydrin method. [Note: H. Rosen, A modified ninhydrin colorimetric analysis for amino acids. Arch. Biochem. Biophys. 67:10-15 (1957)].
The activity unit of enzyme of this invention is defined herewith as the enzyme quantity required for decomposing 10 mM N-acetyl-D-methionine solution for releasing 1μ mole D-methionine per minute at 37° C.
The D-aminoacylase of this invention (hereinafter simply designated as "the acylase") may hydrolyze N-acyl-D-amino acids, but only slightly hydrolyze the N-acyl-L-amino acids.

Assay [2] concerns the target T1, D-aminoacylase. In words: Influence of metallic ions on D-aminoacylase activities. As to conditions: 1 mM metallic ion, 50 mM Tris-HCl pH 7.8, 30 minutes at 37° C., ninhydrin method.
Assay [3] concerns the target T1, D-aminoacylase. Briefly: Reagents (inhibitors) influencing the D-aminoacylase activities.
[4] abbreviates: 1 mM inhibitor, 50 mM Tris-HCl pH 7.8, 30 minutes at 37° C., ninhydrin method, read-out: Residual activities %.

Where two headings read alike, the source gives them in different places.

The values below come from US5206162A, “Process for making D-aminoacylase” (National Science Council of Republic of China, priority 1991, dated 1993).

Consider `CSCC[C@@H](NC(C)=O)C(=O)O` [N-acetyl-D-methionine], for which the “Hydrolysis by the acylase (in words)” value at D-aminoacylase [1] is reported as “strongest”.

`[Cl][Cu][Cl]` [CuCl2]: the Residual activities % on D-aminoacylase [2] is recorded as 15%.

Consider `CC(=O)N[C@@H](Cc1c[nH]c2ccccc12)C(=O)O` [N-acetyl-tryptophan], for which, at D-aminoacylase [1], the “Relative Activity D-form” value amounted to 14 and the “Relative Activity L-form” value is given as 0.

Take `CCN1C(=O)C=CC1=O` [N-ethylmaleimide]: at D-aminoacylase [3] (setting [4]), the remaining activity at 1000 µM came to 36%. In addition, on D-aminoacylase [3] (1 mM, 37° C., 30 minutes), the “Inhibition of the enzyme by reagent (in words)” value (“Inhibition of the enzyme” for short) is on record as “inhibited”.

As for `[Cl][Fe][Cl]` [FeCl2], at D-aminoacylase [2], the Residual activities % is listed as 60%.

Regarding `CC(=O)NC(CC(C)C)C(=O)O` (stereo not shown) [N-acetyl-leuoine], at D-aminoacylase [1], the “Relative Activity D-form” value was found to be 40 and the “Relative Activity L-form” value is reported as 0.4.

As for `NC(=O)CI` [iodoacetamide], the remaining activity at 1000 µM on D-aminoacylase [3] (setting [4]) was determined as 97%.

Regarding `O=CC(=O)c1ccccc1` [phenylglyoxal], the remaining activity at 1000 µM on D-aminoacylase [3] (setting [4]) came out at 65%. For the same molecule, the “Inhibition of the enzyme” value at D-aminoacylase [3] (1 mM, 37° C., 30 minutes) is recorded as “inhibited”.

Take `[Cl][Mn][Cl]` [MnCl2]: the Residual activities % at D-aminoacylase [2] is 70%.

Consider `CC(=O)N[C@@H](CC(N)=O)C(=O)O` [N-acetyl-asparagine], for which, on D-aminoacylase [1], the “Relative Activity D-form” value is reported as 8 and the “Relative Activity L-form” value worked out at 0.

On to `O=C(O)CN(CCN(CC(=O)O)CC(=O)O)CC(=O)O` [EDTA], for which, at D-aminoacylase [3], the “Inhibition of the enzyme” value is “inhibited”. Further, the remaining activity at 1000 µM on D-aminoacylase [3] (pH 7.8, read-out: Residual activities %) amounted to 22%.

The molecule `[Ca+2].[Cl-].[Cl-]` [CaCl2] yielded a Residual activities % at D-aminoacylase [2] of 99%.

With `CC(C)[C@H](NC(=O)CCl)C(=O)O` [N-chloroacetyl-valine], at D-aminoacylase [1], the “Relative Activity D-form” value was 42 and the “Relative Activity L-form” value turned out to be 0.6.

`[Ba+2].[Cl-].[Cl-]` [BaCl2] registered a Residual activities % at D-aminoacylase [2] of 99%.

For `CC(=O)N[C@@H](C)C(=O)O` [N-acetyl-alanine], at D-aminoacylase [1], the “Relative Activity D-form” value was found to be 14 and the “Relative Activity L-form” value came out at 0.7.

Turning to `[Cl-].[Cl-].[Mg+2]` [MgCl2], on D-aminoacylase [2], the Residual activities % is on record as 95%.

In turn, `[Cl][Cd][Cl]` [CdCl2] yielded a Residual activities % on D-aminoacylase [2] of 0%.

In the case of `[Cl-].[Cl-].[Zn+2]` [Zncl2], on D-aminoacylase [2], the Residual activities % is given as 0%.

`[Cl][Hg][Cl]` [HgCl2] registered a Residual activities % on D-aminoacylase [2] of 0%.

Take `[Cl-].[Cl-].[Co+2]` [CoCl2]: the Residual activities % at D-aminoacylase [2] was 96%.

The molecule `[Cl-].[Cl-].[Sr+2]` [SrCl2] returned a Residual activities % on D-aminoacylase [2] of 87%.

`CC(=O)N[C@H](C(=O)O)C(C)C` [N-acetyl-valine]: at D-aminoacylase [1], the “Relative Activity D-form” value is listed as 6 and the “Relative Activity L-form” value worked out at 0.

`[Cl][Ni][Cl]` [NiCl2]: on D-aminoacylase [2], the Residual activities % turned out to be 89%.

Consider `CC(=O)NC(C(=O)O)c1ccccc1` (stereo not shown) [N-acetyl-phenylglycine], for which, at D-aminoacylase [1], the “Relative Activity D-form” value amounted to 3 and the “Relative Activity L-form” value stood at 0.

Regarding `CC(=O)N[C@@H](Cc1ccccc1)C(=O)O` [N-acetyl-phenylalanine], at D-aminoacylase [1], the “Relative Activity D-form” value is 80 and the “Relative Activity L-form” value turned out to be 0.8.

Regarding `CSCC[C@H](NC(C)=O)C(=O)O` [N-acetyl-methionine], on D-aminoacylase [1], the “Relative Activity D-form” value is on record as 100 and the “Relative Activity L-form” value came to 0.8.

As for `O=C(O)c1cc[c]([Hg][Cl])cc1` [p-chloromercuibenzoic acid], the Residual activities % at D-aminoacylase [3] (1 mM inhibitor, 50 mM Tris-HCl pH 7.8, 30 minutes at 37° C., ninhydrin method) amounted to 0%. Also, on D-aminoacylase [3] (1 mM, 37° C., 30 minutes), the “Inhibition of the enzyme” value is reported as “inhibited”.
